# According to PMC12894115, “Discovery and Functional Characterization of SnFDHal, an Efficient Tryptophan 5-Halogenase from Streptomyces noursei” (Applied Biochemistry and Biotechnology, 2025):
# Test system: T1, SnFDHal
# T1 construct: full-length 1,551 bp gene (about 516 residues) cloned from genomic DNA, pET28a NdeI/XhoI, His6-tagged, E. coli BL21(DE3), Ni-NTA; residues F49, K75, I78, H92, F94, Q187, E359, S460
# Test: HPLC chlorination assay, Michaelis-Menten fit
# Assay type: biochemical, Streptomyces noursei
# Settings: NADH, FAD, E. coli Fre reductase (FADH2 regeneration), NaCl; 100 mM phosphate pH 6.0, 35 °C, 30 min
# Excerpt: HPLC chlorination assay, Michaelis-Menten fit on SnFDHal
row,Km [µM],Compound
1,945,"N[C@@H](Cc1c[nH]c2cc(Cl)ccc12)C(=O)O [6-Cl-Trp, 6-chlorotryptophan]"
2,172,"N[C@@H](Cc1c[nH]c2c(Cl)cccc12)C(=O)O [7-Cl-Trp, 7-chlorotryptophan]"

row,Compound,Km [µM]
1,"N[C@@H](Cc1c[nH]c2ccccc12)C(=O)O [L-Trp, L-tryptophan]",622
